According to patent US11512042B2, “Enamine compounds for absorbance of electromagnetic energy” (Commonwealth Scientific and Industrial Research Organisation, priority 2015, dated 2022):
Several values for one entry are separate records, joined by “and”; a condition that tells them apart may be missing. Identical values can stand only once.

Assays:
Format in all cases: physicochemical
[1] = % transmission spectrum of 0.1% solution (breakthrough, steepness); conditions: for Steepness: distance in nm over which transmittance increases from 1 to 80%; for Breakthrough (1% T at 0.1%): value in nm where transmittance increases beyond 1%, 0.1% solution
Source text: FIG. 2 is a is a graphical representation of the % transmission of compounds 142 and 143 measured in a 2 mm cuvette as 0.1% solutions in methanol (142 is the left most trace);
(§1) The synthesised benzoyl functionalised compounds and their spectroscopic properties can be seen in table 2 wherein; breakthrough denotes the value in nm where transmittance increases beyond 1%; steepness refers to the distance in nm over which transmittance increases from 1 to 80% (a higher value indicates a less steep transition from absorbing to transmitting and is generally unfavourable); and ^a denotes an average of multiple measurements. As a general comment, it can be noted that the benzoyl substituted compounds gave similar absorbance maxima to the corresponding trifluoroacetyl derivative.

[2] = UV absorbance spectrum in solution (λmax, λcrit, extinction coefficients); conditions: for λcrit: critical wavelength; for E (1%, 1 cm): mass extinction coefficient; for ε: molar extinction coefficient, in M-1 cm-1 (unit assumed)
Source text: as §1, with “FIG. 1 is a graphical representation of the absorbance of compounds 142 and 143 measured in a 10 mm cuvette as 0.001% solutions in methanol (142 is the uppermost trace at peak point of approximately 330 nm); The” for “The”

[3] = Photostability protocol: thin film irradiated with xenon arc lamp; conditions: 1 hour xenon arc lamp; for Photostability: ratio of absorbance at λmax irradiated vs unirradiated, ^a = average of multiple measurements
Experimental: 1 mL of a 3% solution of the test compound (30 mg of test compound in 1 mL solvent) was prepared in a solvent mix made up of 50% EtOH and 25% capric/caprylic triglyceride and 25% C12-C15 alkyl benzoate. 50 μL of this solution (containing 1.5 mg of test compound) was added carefully to the centre of a glass microscope slide and the volatile components left to evaporate in the dark for at least 3 hours to give a liquid film. The prepared films were then exposed for 1 hour to an Eimac 150 W xenon arc lamp filtered through Pyrex (15 Amp supply current, samples 19 cm from the lamp) previously allowed to warm up for 15 minutes prior to sample exposure. The irradiation was performed in a fume cupboard where the air flow was sufficient to keep sample T<30° C. One hour's exposure represented a calculated radiation dose (using meter) of approximately 100 MED.
In order to calculate the photostability of the test compounds, the exposed slides were placed in a beaker and rinsed with 2×5 mL EtOH, 1×5 mL MeOH. The combined washings were then added to a 100 mL volumetric flask and made up to 100 mL total volume with methanol. The UV absorbance was then measured in a 10 mm cuvette. The percent stability is measured as the ratio of absorbance at λmax for the irradiated sample compared to the unirradiated sample.
The thin films are a good surrogate for testing the stability of a candidate in, for example, a sunscreen formulation as they use cosmetic emollients as solvent and are formed at cosmetically relevant concentrations.

Row | SMILES | Steepness [1] | Breakthrough (1% T at 0.1%) [1] | λmax [2] | λcrit [2] | E (1%, 1 cm) [2] | ε [2] | Photostability [3] | Photostability (% remains) [3]
1 | O=C(C(=O)N1CCc2ccccc21)/C(=C/N1CCc2ccccc21)c1ccccc1 [Compound 277] | 26 nm | 414 nm | 365 nm | 388 nm | 872 | 34350 | 95% | 
2 | CCCCC(CC)COC(=O)c1ccc2c(c1)CCN2/C=C(/C(=O)C(C)(C)C)c1ccc(Br)cc1 (centres unmarked) [Compound 309] | 19 nm | 397 nm | 366 nm | 384 nm | 780 | 42050 | 80% | 
3 | COC(=O)c1ccc2c(c1)CCN2/C=C(\C(=O)C(F)(F)F)c1ccccc1 [Compound 201] | 18 nm | 420 nm | 373 nm | 391 nm | 1230 | 46134 | 97% | 97%
4 | CN(C)/C=C(/C(=O)c1ccccc1)c1ccccc1 [Compound 240] | 40 nm | 379 nm | 313 nm | 361 nm | 776 | 19475 | 10% | 
5 | CN(C)C(=O)C(=O)/C(=C\N1CCc2ccccc21)c1ccccc1 [Compound 258] | 23 nm | 409 nm | 359 nm | 384 nm | 1045 | 33443 | 63% | 
6 | Cc1ccc(C(=O)/C(=C/N(c2ccccc2)c2ccccc2)c2ccccc2)cc1 [Compound 274] | 42 nm | 411 nm | 353 nm | 384 nm | 420 | 16369 | 76% | 
7 | COC(=O)c1ccc2c(c1)CCN2/C=C(/C(=O)C(=O)OC(C)(C)C)c1ccccc1 [Compound 269] | 26 nm | 419 nm | 374 nm | 391 nm | 1033 | 42074 | 94% and 94^a % and 98% and 91% | 
8 | CCCCN(/C=C(/C(=O)C(F)(F)F)c1ccccc1)c1ccccc1 [Compound 234] | 31 nm | 381 nm | 330 nm | 365 nm | 704 | 24440 | 87% | 
9 | CCN(/C=C(/C(=O)c1ccccc1)c1ccccc1)CC [Compound 268] | 48 nm | 374 nm | 312 nm | 360 nm | 656 | 18293 | 10% | 
10 | COC(=O)c1ccc2c(c1)CCN2C=C(C(=O)C(C)(C)C)c1ccc(C)cc1 [Compound 295] | 16 nm | 402 nm | 368 nm | 385 nm | 1307 | 49288 | 68% | 
11 | CC1(C)CN(/C=C(/C(=O)c2ccccc2)c2ccccc2)c2ccccc21 [Compound 246] | 43 nm | 405 nm | 357 nm | 385 nm | 451 | 15933 | 53% | 
12 | CCN(/C=C(/C(=O)c1ccc(C)cc1)c1ccccc1)c1ccccc1 [Compound 273] | 37 nm | 394 nm | 336 nm | 376 nm | 614 | 20922 | 73% | 
13 | CCN(/C=C(/C(=O)C(=O)OC(C)(C)C)c1ccccc1)c1ccccc1 [Compound 271] | 36 nm | 381 nm | 332 nm | 366 nm | 530 | 18592 | 75% | 
